Experiments:
[1] = test system: Entamoeba histolytica; assay: Antiamoebic activity against Entamoeba histolytica HM-1:IMSS trophozoites after 72 hrs by microdilution method; assay type: functional
[2] = Cytotoxicity against mouse Melan-a cells assessed as reduction in cell viability after 48 hrs by MTT assay; assay type: toxicity

| IC50 [1] | SMILES | IC50 at 48 h [2] |
| --- | --- | --- |
| 150 nM | Cc1ncc([N+](=O)[O-])n1CCOC(=O)Nc1ccc(OCc2cccc(Cl)c2)cc1 | > 50000 nM |
| 260 nM | Cc1ncc([N+](=O)[O-])n1CCOC(=O)Nc1ccc(OCc2ccc(F)c(F)c2)cc1 | > 50000 nM |
| 260 nM | Cc1ncc([N+](=O)[O-])n1CCOC(=O)Nc1ccc(OCc2ccc(C#N)cc2)cc1 | > 50000 nM |
| 80 nM | Cc1ncc([N+](=O)[O-])n1CCOC(=O)Nc1ccc(OCc2ccc(F)cc2)cc1 | > 50000 nM |
| 240 nM | Cc1ncc([N+](=O)[O-])n1CCOC(=O)Nc1ccc(OCc2ccc(C(F)(F)F)cc2)cc1 | > 50000 nM |
| 1780 nM | Cc1ncc([N+](=O)[O-])n1CCO [METRONIDAZOLE] |  |
